Data taken from patent publication US20070031342A1, “Sustained release microparticles for pulmonary delivery” (Nektar Therapeutics, priority 2005, published 2007).
Read-outs that look alike come from different tables or passages of the source.

Legend:
[1] = cited from earlier work
[2] = Rabbit aerosol inhalation model, serum sCT concentration after intratracheal aerosol administration; format: in vivo; conditions: single intratracheal aerosol administration
Description: The in vivo dissolution properties of the composition were determined in a rabbit aerosol inhalation model. In this test, the serum sCT concentration was measured for increasing time following intratracheal aerosol administration for sustained release microparticles comprising 20% w/w encapsulated sCT and compared to the concentration of a control sample comprising neat 20% w/w sCT powder. […] In contrast, the absorption of the encapsulated sCT of the microparticles reaches its maximum blood levels at 4 hours post administration and are sustained to at least 24 hours. […] Accordingly, the encapsulated sCT microparticles prepared according to the above method provide improved sustain release results over the unencapsulated sCT, by increasing the duration over which the drug is released to provide a more controlled dose of the sCT drug.

tmax ([2]; serum, inhaled or intranasal, read-out: time to maximum concentration in the blood (converted)) [min]	time after which blood levels return to baseline [2] [h]	SMILES	tmax ([1]; following inhalation delivery, Pulmicort Turbuhaler) [min]	absolute bioavailability ([1]; inhaled) [%]	bioavailability ([1]; nasal) [%]	bioavailability ([1]; oral) [%]
		CCCC1O[C@@H]2C[C@H]3[C@@H]4CCC5=CC(=O)C=C[C@]5(C)[C@H]4[C@@H](O)C[C@]3(C)[C@]2(C(=O)CO)O1 (stereo partly drawn) [budesonide]	~30	39	21±6	10.7±4.3
15	3	CC(C)C[C@H](NC(=O)[C@H](CCCCN)NC(=O)CNC(=O)[C@H](CC(C)C)NC(=O)[C@@H](NC(=O)[C@@H]1CSSC[C@H](N)C(=O)N[C@@H](CO)C(=O)N[C@@H](CC(N)=O)C(=O)N[C@@H](CC(C)C)C(=O)N[C@@H](CO)C(=O)N[C@@H]([C@@H](C)O)C(=O)N1)C(C)C)C(=O)N[C@@H](CO)C(=O)N[C@@H](CCC(N)=O)C(=O)N[C@@H](CCC(=O)O)C(=O)N[C@@H](CC(C)C)C(=O)N[C@@H](Cc1c[nH]cn1)C(=O)N[C@@H](CCCCN)C(=O)N[C@@H](CC(C)C)C(=O)N[C@@H](CCC(N)=O)C(=O)N[C@H](C(=O)N[C@@H](Cc1ccc(O)cc1)C(=O)N1CCC[C@H]1C(=O)N[C@@H](CCCNC(=N)N)C(=O)N[C@H](C(=O)N[C@@H](CC(N)=O)C(=O)N[C@H](C(=O)NCC(=O)N[C@@H](CO)C(=O)NCC(=O)N[C@H](C(=O)N1CCC[C@H]1C(N)=O)[C@@H](C)O)[C@@H](C)O)[C@@H](C)O)[C@@H](C)O [neat salmon calcitonin]				
